Molecules are shown by their SMILES. Some results are limits rather than exact numbers.

The term IC50 denotes the concentration at which inhibition is half-maximal.

The test system of data set [1] is MM1.S. In words: Antiproliferative activity against human MM1.S cells assessed as reduction in cell viability incubated for 72 hrs by XTT assay. It counts as functional, cell-based.
The subject of data set [2] is RPMI-8226. Briefly: Antiproliferative activity against human RPMI 8226 cells assessed as reduction in cell viability incubated for 72 hrs by XTT assay. It counts as functional, cell-based. Conditions: RPMI-8226, 72 h.
Data set [3] concerns RPMI-8226. In words: Antiproliferative activity against human RPMI-8226 cells cultured as 3D-spheroids assessed as reduction in cell viability after 48 hrs by Celltiter-Glo assay. In kind it is functional, cell-based. Conditions: RPMI-8226, 48 h. (In general: In ATP-based viability assays light output follows the ATP content of the culture.)
The nature of data set [4]: Antiproliferative activity against human MM1.R cells assessed as reduction in cell viability incubated for 72 hrs by XTT assay. In kind it is functional, cell-based. To be noted: MM.1R.
The nature of data set [5]: Stability in human RPMI 8226 cells medium measured upto 72 hrs by HPLC analysis. In kind it is ADME, cell-based. Conditions: rpmi-8226, 72 h.

Consider `CC1C(=O)O[C@@H]([C@](C)(O)C2=CC[C@@]3(O)[C@@H]4C[C@H]5O[C@]56[C@@H](O)C=CC(=O)[C@]6(C)[C@H]4CC[C@]23C)C[C@@H]1C` (some centres undefined), for which the half-inhibitory concentration (IC50) in data set [1] worked out at 338 nM; in data set [2], 122 nM; in data set [3], 2290 nM; in data set [4] it was 209 nM.
On the same counts, the results for `C[C@H]1C[C@H]([C@](C)(O)[C@@]2(O)CC[C@H]3[C@@H]4C[C@H]5O[C@]56[C@@H](O)C=CC(=O)[C@]6(C)[C@H]4CC[C@@]32C)OC(=O)[C@@H]1C` are 1820 nM, 506 nM, above 40000 nM and 1090 nM.
As to `C[C@H]1C(=O)O[C@@H]([C@](C)(O)[C@H]2CC[C@H]3[C@@H]4C[C@H]5O[C@]56[C@@H](O)C=CC(=O)[C@]6(C)[C@H]4CC[C@]23C)C[C@@]1(C)O`, the IC50 was found to be 1290 nM in data set [1], 451 nM in data set [2], 12300 nM in data set [3] and 997 nM in data set [4].
For `C[C@@H]1[C@@H](C)C(=O)OC12C[C@](C)(O)C1[C@H](C[C@H]3[C@@H]4C[C@H]5O[C@]56[C@@H](O)C=CC(=O)[C@]6(C)[C@H]4CC[C@]13C)O2` (some centres undefined), in that order: 559 nM, 239 nM, 4650 nM and 366 nM.
`CC1=C(CO[Si](C)(C)C(C)(C)C)C(=O)O[C@@H]([C@@H](C)[C@H]2CC[C@H]3[C@@H]4C[C@H]5O[C@]56[C@@H](O[Si](C)(C)C)C=CC(=O)[C@]6(C)[C@H]4CC[C@]23C)C1`: the Stability entry in data set [5] is reported as “Stable”.
Consider `CC(C)C[C@H](NC(=O)[C@H](Cc1ccccc1)NC(=O)c1cnccn1)B(O)O` [BORTEZOMIB], for which the IC50 in data set [1] was 2.5 nM; in data set [2], 4.7 nM; in data set [3], 6.4 nM; in data set [4], 2.4 nM.
With `CC1=C(CO)C(=O)O[C@@H]([C@@H](C)[C@H]2CC[C@H]3[C@@H]4C[C@H]5O[C@]56[C@@H](O)C=CC(=O)[C@]6(C)[C@H]4CC[C@]23C)C1` [WITHAFERIN A], the IC50 in data set [1] is 53 nM; in data set [2], 258 nM; in data set [3] it was 1600 nM; in data set [4], 263 nM.
On the same counts, the results for `CC1=C(C)C(=O)O[C@@H]([C@](C)(O)[C@H]2CC[C@H]3[C@@H]4C[C@H]5O[C@]56[C@@H](O)C=CC(=O)[C@]6(C)[C@H]4CC[C@]23C)C1` [WITHANOLIDE D] are 107 nM, 76 nM, 980 nM and 106 nM.

For the origin of these results see ChEMBL document CHEMBL4828747, “Structure-Activity Relationships of Withanolides as Antiproliferative Agents for Multiple Myeloma: Comparison of Activity in 2D Models and a 3D Coculture Model” (J Nat Prod, 2021).
